# According to patent US20240335395A1, “COMPOSITIONS AND METHODS FOR PREVENTING AND/OR TREATING DISEASE ASSOCIATED WITH IL-23 EXPRESSION” (ALLSPIM, priority 2021, published 2024):
# Key:
# IL-23 = IL-23 production (ELISA) in LPS-stimulated THP-1 cells, 2,4-D versus other chalcones, Example 2; assay type: cell-based, human; details: LPS-stimulated THP-1
# Description: Molecules tested. Natural 2,4-D, isolated and purified from Chloranthus spicatus (purity HPLC≥98%, Cat. No.: 129742-43-2), was purchased from BOC Science (Shirley, NY). Synthetic 2,4-D (purity HPLC≥98%) was obtained from YIWEI Biotech (Shanghai, China). 2′-hydroxychalcone (2′-HC, purity HPLC≥98%, Cat. No.: 42224-53-3), 4-hydroxychlcone (4-HC, purity HPLC≥98%, Cat. No.: 20426-12-4), 2′,2-dihydroxychalcone (2′,2-DHC, purity HPLC≥98%, Cat. No.: IDF00045_ALDRICH), 2′,3-dihydroxychalcone (2′,3-DHC, purity HPLC≥98%, Cat No.: IDF00047_ALDRICH), 2′,4-dihydroxychalcone (2′,4-DHC, purity HPLC≥98%, Cat. No.: PH011685_ALDRICH), 2′,5′-dihydroxychalcone (2′,5′-DHC, purity HPLC≥98%, No.: IDF00046-1G), and 2′,4′,4-trihydroxychalcone (2′,4′4-THC, purity HPLC≥98%, No.: 38986_SIAL) were purchased from Sigma. 2′,4′-dihydroxychalcone (2′,4′-DHC, purity HPLC≥98%, Cat. No. AB151736) was purchased from abcr GmbH (Karlsruhe, Germany). Isobavachalcone (IBC), 4′-hydroxy-2′6′-dimethoxychalcone (HMC), 2-trifluoromethyl-2′-methoxychalcone (TFM) and Hydroxysafflor yellow A (HYA) were also tested.
# Cell culture. THP-1 cells were cultured in RPMI 1640 culture medium (Gibco) supplemented with 10% fetal bovine serum (FBS; Gibco, UK.), 0.05 mM 2-mercaptoethanol, and 1% penicillin/streptomycin. Cells were used in exponential growth phase, with culture medium being replaced with fresh medium 1 day prior to the experiment. The following day, THP-1 cells were plated into 24-well culture plates with a cell density about 800,000 cells/mL and 2 mL per well. 10 ng/mL LPS was used to stimulate the THP-1 cells. RPMI 1640 medium containing 10% FBS and 1% P/S was used as a normal control (NC). 10 mM stock solutions of compounds in DMSO were diluted to 20 μM with complete culture medium just before use. Experiments were performed in quadruplicate.
# Enzyme linked immune-sorbent assay (ELISA). At 24 hours, after centrifugation at 300 g for 10 min., 0.5 mL of supernatant was collected and stored at −80° C. until use. IL-23 levels were determined in culture supernatants as described in Example 1.
# IL-17 = test: IL-17A production in anti-CD3/CD28-stimulated mouse spleen cells (ELISA); assay type: cell-based; details: for production and release of IL-17 in supernatant: 72 h
# Description: Briefly, before the experiment, 48-well plates were coated with 150 μl/well hamster anti-mouse CD3 (Clone 145-2C11, NA/LE, BD PHM, USA) at a concentration of 10 μg/ml and incubated overnight at 4° C. The next day, a C57BL/6 mouse was euthanized by cervical dislocation, and its spleen was aseptically dissected using sterile techniques. The harvested spleen was placed in a small Petri dish containing 10 ml of ice-cold PBS/FBS, ground using 2 frosted microscope slides, and filtered through a piece of 40 μm nylon material to yield a single cell suspension. Thereafter, the spleen cell suspension was carefully dispensed onto mouse lymphocyte separation medium (TBD Science Inc, Tianjin, China) and the lymphocytes were collected after density gradient centrifugation. After washing and cell counting, cell density was adjusted to 1 million cells/mL with RPMI 1640 (Gibco) plus 10% FCS and 1 μg/mL anti-mouse CD28 (BD PHM). […] After stimulation for 72 hours with anti-CD3 and anti-CD28 monoclonal antibodies, culture supernatants were collected and IL-17A measured with an IL-17A mouse ELISA kit (Thermo Fisher Scientific Inc.) according to the manufacturer's instructions. Cell count and viability were also evaluated with 0.4% trypan blue (Thermo Fisher Scientific Inc.) staining.
# SOD1 G93A mice = test: SOD1 G93A mouse model of ALS, motor symptoms and neuroscore; assay type: in vivo; details: 50 mg/kg daily oral in gel from 21 days post-natal
# Description: Animals. The ALS mouse model is the SOD1 G93A (Gurney et al. Science 1994). Mutations in the SOD1 gene represent about 20% of the mutations in human familiar forms of ALS. Mice with multiple human transgenes with the G93A mutation in the SOD1 gene develop a progressive muscle paralysis and a loss of spinal motor neurons as in human patients. We used the high expressor lines (Jackson Labs #002726 B6SJL-Tg(SOD1*G93A)1 Gur/J) that contains at least 15 copies of the human transgene. SOD1 G93A males are crossed with B6/SJL females (Janvier Labs #SH-B6SJL-F1; hybrid model B6SJLF1/JRj). Genotyping allows us to identify the transgenic animals in the litter.
# Symptoms progression is assessed using a neuroscore grid as in Hatzipetros et al. JoVE 2015. Mice are euthanized when they are transitioning from neuroscore 2 to neuroscore 3 (full paralysis of one hindlimb). This transition happens about 120-130 days post-natal in our breeding conditions and in the absence of the 2,4-D treatment. Non transgenic littermates are used as control animals.
# Chronic administration of 2,4-D in mice. […] Daily delivery of the drug for a long time period (about 100 days) is not compatible with IP injections for ethics considerations and also because of the infection risk. We then rely on oral administration in a gel using a method modified from Lei Zhang, Star Protocol 2021. Briefly, the gel is produced by mixing alimentary gelatin (8%, Vahiné) in a 2% sucralose solution (Myprotein, zero calory, no flavor) and by heating this mixture at 60° C. for 20-30 minutes until clarification. An artificial flavor, for instance “cheese flavor” (Arôme Alimentaire Emmental 58 ml Cuisineaddict), 2 microliters/milliliter), may be added to this preparation along with some kibble grinds to powder (the same kibble as the one used in the house facility for ordinary diet) for improving palatability. This mixture is then aliquoted in individual daily portions of 315 microliters. 1 to 2 mg of 2,4-D (depending on the mouse body weight, 50 mg of 2,4-D per kg of mouse body weight) is added to each portion while the mixture is still warm (2,4-D is not added in the vehicle portions given to untreated animals). This mixture solidifies in a jelly form upon cooling. The gel can be kept in a fridge (4° C.) for 6 days. We usually have 4 mice (males or females) per cage. To feed the mice with 2,4-D we remove the ordinary kibbles (sometime 4 hours before) and we physically isolated each mouse in a corner of the cage with a plexiglass cross placed in the cage to separate four compartments. One portion jelly is placed at the bottom of each compartment until the mouse has eaten it. In the case the mouse has not eaten the full portion after 3 hours, we evaluate how much was taken by the mouse. […]
# Solubility in water = assay type: physicochemical
smiles,measurement,setting,value
"COc1cc(O)c(OC)c(O)c1C(=O)/C=C/c1ccccc1 [2,4-D, 2′,4′-dihydroxy-3′,6′-dimethoxychalcone]","inhibition of IL-23, superiority over remaining compounds",IL-23,"7,5- to 18 fold"
same,production and release of IL-17 in supernatant,IL-17; 1 μg/ml,significantly suppressed
same,production and release of IL-17 in supernatant,IL-17; 5 μg/ml,significantly suppressed
same,suppression of IL-17 on adding recombinant mouse IL-23,IL-17; recombinant mouse IL-23 5 ng/ml,completely reversed
same,neuroscore progression (from 0 to 3),SOD1 G93A mice,tends to slow down
same,time at which neuroscore 3 is reached (survival time),SOD1 G93A mice,tends to be delayed
same,"time at which the axial tonus is lost, compared with vehicle",SOD1 G93A mice,significantly extends
same,"time at which the full hindlimb extension is lost, compared with vehicle",SOD1 G93A mice,significantly extends
same,solubility in water,Solubility in water,Low solubility
